Assay results from patent US10913788B2, “Pharmaceutical composition for preventing or treating dry eyes” (EYEBIO KOREA, priority 2015, dated 2021).

Columns and labels:
Type in all cases: in vivo
NOD.B10.H2^b mice = assay: Tear production measured with phenol red-impregnated cotton threads in dry eye mice after removal of desiccation stress; settings: for increased tear production compared to the control group (PBS group): 10 mg/ml in PBS, 5 μL instilled into eyeballs 5 times per day, up to 10 days after removal of desiccation stress, p<0.05; for tear production / tear volume, result in words: eye instillation 5 times per day for 10 days after removal of desiccation stress, 0.1% HA
Description: (§1) NOD.B10.H2^b mice were purchased from Jackson Laboratory (Bar Harbor, Me., USA). Experiments on animals were performed according to the guidelines for animal experiments of Inje University College of Medicine (No.; 2014-029) and the ARVO statement for the use of animals in ophthalmic and vision research. 12-to-16-week-old NOD.B10.H2^b mice underwent desiccation stress as being exposed to an air draft from a fan at an ambient humidity of about 40% to 50% for 18 hours per day, and then, were subjected to subcutaneous injection of 0.5 mg/0.2 mL of muscarinic receptor blockers. Also, the mice were injected with scopolamine hydrobromide (Sigma-Aldrich, St. Louis, Mo.) alternatively on hindquarters 4 times per day (9 AM, 12 PM, 3 PM, and 6 PM) for 10 days. During these experiments, behaviors and food and water intakes of the mice were not restricted. 10 days later, the mice were euthanized.
(§2) 10 days after the mice underwent desiccation stress, the scopolamine injection was halted, and then, the mice newly had environments with normal humidity and temperature. After the desiccation stress was removed, the mice were divided into a peptide I group or a peptide II group, wherein 10 mg/ml of peptide I or 10 mg/ml of peptide II was dissolved in PBS and 5 μL of PBS was instilled into eyeballs of the mice 5 times per day for 10 days. In addition, 5 μL of PBS or 5 μL of 0.1% HA were instilled into eyeballs of the mice in a control group, i.e., a PBS group or a hyaluni (HA) group, 5 times a day for 10 days. In each group, both eyes of each of 5 mice were used to conduct the experiments in a repetitive manner.
Extents of tear production were measured with phenol red-impregnated cotton threads (Zone-Quick; Oasis, Glendora, Calif.), as previously described (Villareal A L, Farley W, Pflugfelder S C. Effect of topical ophthalmic epinastine and olopatadine on tear volume in mice. Eye Contact Lens. 2006; 32(6):272-276). The threads were held medical tweezers and placed in the lateral canthus for 20 seconds. The tear volumes were expressed as millimeter (mm) of wet thread that had been turned red by the tears, as measured under a microscope (SZX7; Olympus corp, Tokyo, Japan).
The tear fluid uptakes measured in millimeters were compared to a standard curve that was prepared from cotton threads with known uptake volumes of a stock basic solution ([…] of 0.9% saline and 5 mL of 5 N NaOH) over 20 seconds that were within the range that would be expected for mouse tears.

corneal epithelial cells = assay: Detachment of corneal epithelial cells (H&E stain) in dry eye mice; settings: instillation for 10 days after removal of desiccation stress
Description: as §1
(§3) 10 days after the mice underwent desiccation stress, the scopolamine injection was halted, and then, the mice newly had environments with normal humidity and temperature. After the desiccation stress was removed, the mice were divided into a peptide I group or a peptide II group, wherein 10 mg/ml of peptide I or 10 mg/ml of peptide II was dissolved in PBS and 5 μL of PBS was instilled into eyeballs of the mice 5 times per day for 10 days. […]

[1] = system: conjunctival goblet cells; assay: Distribution of conjunctival goblet cells (PAS stain) in dry eye mice; settings: instillation after removal of desiccation stress, p<0.05; for conjunctival goblet cells: desiccation stress 7.43±1.52
Description: as §1, §2
The eyes and adnexa of the mice in the control groups (i.e., the PBS group and the HA group) and the experimental groups (i.e., the peptide I group and the peptide II group) were surgically excised, fixed in 10% formalin, and embedded in paraffin and an OCT compound.
6 μm sections of the tissue samples were stained with haematoxylin and eosin (H&E) and periodic acid-Schiff (PAS) reagent.
5 animals in each group were subjected to the staining as described above, and then, were examined and photographed with a virtual microscope (NanoZoomer 2.0 RS, Hamamatsu, Japan).
The distribution of the conjunctival goblet cells in the dry eye mice were observed following peptide I, peptide II, and HA instillation.

[2] = system: TNF-α, ICAM-1, VCAM-1, MMP-2, and MMP-9; assay: Immunohistochemical analysis of inflammatory markers in conjunctiva of dry eye mice; settings: instillation for 10 days after removal of desiccation stress
Description: as §1, §3

Substance	increased tear production compared to the control group (PBS group) (NOD.B10.H2^b mice)	tear production / tear volume, result in words (NOD.B10.H2^b mice)	decrease of detachment of corneal epithelial cells compared to the control groups (corneal epithelial cells)	conjunctival goblet cells [1] [cells/0.1 mm^2]	increase of conjunctival goblet cells that were decreased by desiccation stress [1]	expression of inflammatory markers (TNF-α, ICAM-1, VCAM-1, MMP-2, MMP-9) in the conjunctiva, result in words [2]	number of detached corneal epithelial cells (corneal epithelial cells; DS 10D 2.29±0.61, PBS 1.43±0.34)
GQDGLAGPK [peptide II, collagen type II α1 based peptide …]	about 2.52 fold	recovering the tear volumes up to normal tear volumes	about 4 fold	12.1 ± 1.11	about 1.63 fold	significantly decreased	
GDRGD [peptide I, collagen type I α1 based peptide GDRGD]	about 2.52 fold	recovering the tear volumes up to normal tear volumes		13.3 ± 2.41	about 1.8 fold	significantly decreased	about 0.19±0.14 /0.1 mm^2
